According to patent US6545182B2, “Methods and compositions for modulating alpha adrenergic receptor activity” (Allergan Sales, Inc., priority 2000, dated 2003):

Columns and labels:
Sprague-Dawley rats = experiment: rat locomotor model to assess sedation; format: in vivo; details: 3 mg/kg i.p., 30 minutes after injection, vs vehicle controls
Procedure: (§1) The physiological activity of these compounds was tested using four models: a rat locomotor model to assess sedation, an assay of cardiovascular activity in monkeys, a rat thermal paw withdrawal assay (Dirig et al., J. Neurosci. Methods 76:183-191 (1997) to test the alleviation of acute pain, and the rat spinal nerve ligation allodynia model (Kim and Chung, Pain 50:355-363 (1992) to assess the alleviation of neuropathic pain and central sensitization typical of chronic pain. As is known to those of skill in the art, these tests are established pharmacological methods for determining sedation, cardiovascular effects, acute pain and chronic pain, respectively, of pharmaceutical agents.
To test sedation, six male Sprague-Dawley rats were given up to 3 mg/kg of each compound in a saline or DMSO vehicle by intraperitoneal injection (i.p.). Sedation was graded 30 minutes following administration of the drug by monitoring locomotor skills as follows.
The Sprague-Dawley rats are weighed and 1 ml/kg body weight of an appropriate concentration (i.e. 3 mg/ml for a final dose of 3 mg/kg) drug solution is injected intraperitoneally. FORMULA 3 is formulated in approximately 10% DMSO and FORMULA 2 and FORMULA 4 are formulated in 50% DMSO. The results are compared to 29 historical controls that were injected with 1 ml/kg saline or 50% DMSO. Rat activity is then determined 30 minutes after injection of the drug solution. Rats are placed in a dark covered chamber and a digicom analyzer (Omnitech Electronic) quantitates their exploratory behavior for a five-minute period. The machine records each time the rat interrupts an array of 32 photoelectric beams in the X and Y orientation.

[1] = system: rats with ligated L5 and L6 spinal nerves; experiment: rat spinal nerve ligation allodynia model (chronic pain); format: in vivo; details: i.p., doses up to 3 mg/kg, 30 minutes after drug
Procedure: as §1
A model for chronic pain (in particular peripheral neuropathy such as causalgia) involves the surgical ligation of the L5 (and optionally the L6) spinal nerves on one side in experimental animals. Rats recovering from the surgery gain weight and display a level of general activity similar to that of normal rats. However, these rats develop abnormalities of the foot, wherein the hindpaw is moderately everted and the toes are held together. More importantly, the hindpaw on the side affected by the surgery appears to become sensitive to pain from low-threshold mechanical stimuli, such as that producing a faint sensation of touch in a human, within about 1 week following surgery. This sensitivity to normally non-painful touch is called “tactile allodynia” and lasts for at least two months. The response includes lifting the affected hindpaw to escape from the stimulus, licking the paw and holding it in the air for many seconds. None of these responses is normally seen in the control group.
Rats are anesthetized before surgery. The surgical site is shaved and prepared either with betadine or Novacaine. Incision is made from the thoracic vertebra Xlll down toward the sacrum. Muscle tissue is separated from the spinal vertebra (left side) at the L4-S2 levels. The L6 vertebra is located and the transverse process is carefully removed with a small rongeur to expose the L4-L6 spinal nerves. The L5 and L6 spinal nerves are isolated and tightly ligated with 6-0 silk thread. The same procedure is done on the right side as a control, except no ligation of the spinal nerves is performed.
A complete hemostasis is confirmed, then the wounds are sutured. A small amount of antibiotic ointment is applied to the incised area, and the rat is transferred to the recovery plastic cage under a regulated heat-temperature lamp. On the day of the experiment, at least seven days after the surgery, six rats per test group are administered the test drugs by intraperitoneal (i.p.) injection or oral gavage. For i.p. injection, the compounds are formulated in approximately 50% DMSO and given in a volume of 1 ml/kg body weight. FORMULA 2 was tested at doses ranging between 1 and 300 μg /kg, FORMULA 3 was tested at doses between 0.1 and 3 mg/kg and FORMULA 4 was tested at doses of 0.3 and 3 mg/kg. FORMULA 2 was also administered by oral gavage at doses of 0.1, 0.3 and 1 mg/kg body weight to 24-hour fasted rats. A volume equal to 1 ml/kg body weight of an appropriate concentration (i.e. 1 mg/ml for a 1 mg/kg dose) of FORMULA 2 formulated in approximately 50% DMSO was injected using an 18-gauge, 3-inch gavage needle that is slowly inserted through the esophagus into the stomach.
Tactile allodynia is measured prior to and 30 minutes after drug administration using von Frey hairs that are a series of fine hairs with incremental differences in stiffness. Rats are placed in a plastic cage with a wire mesh bottom and allowed to acclimate for approximately 30 minutes. The von Frey hairs are applied perpendicularly through the mesh to the mid-plantar region of the rats' hindpaw with sufficient force to cause slight buckling and held for 6-8 seconds. The applied force has been calculated to range from 0.41 to 15.1 grams. If the paw is sharply withdrawn, it is considered a positive response. […]

[2] = molecular target: T1, alpha 2A adrenergic receptor (Homo sapiens, UniProt P08913); experiment: RSAT (Receptor Selection and Amplification Technology) assay, alpha 2A; format: cell-based; details: NIH-3T3 cells cotransfected with receptor and Gq/i5
T1 construct: expressed in transfected cells; host or cells: NIH-3T3 cells, transient cotransfection by calcium phosphate
T1 sequence (P08913 1-465): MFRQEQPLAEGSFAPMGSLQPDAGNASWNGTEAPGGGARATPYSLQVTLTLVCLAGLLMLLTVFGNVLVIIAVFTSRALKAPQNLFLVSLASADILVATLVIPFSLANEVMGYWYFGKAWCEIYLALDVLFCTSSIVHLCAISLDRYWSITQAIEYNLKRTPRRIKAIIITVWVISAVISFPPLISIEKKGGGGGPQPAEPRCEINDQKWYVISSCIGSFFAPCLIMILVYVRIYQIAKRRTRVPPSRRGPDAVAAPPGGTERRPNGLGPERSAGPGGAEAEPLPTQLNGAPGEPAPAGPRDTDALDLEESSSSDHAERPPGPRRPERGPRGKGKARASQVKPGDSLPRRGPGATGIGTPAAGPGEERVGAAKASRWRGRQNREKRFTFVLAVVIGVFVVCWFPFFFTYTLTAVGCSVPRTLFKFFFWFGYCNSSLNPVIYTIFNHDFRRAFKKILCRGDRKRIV
Procedure: (§2) Activity was measured using the RSAT (Receptor Selection and Amplification Technology) assay, developed by Receptor Technologies, Inc. of Winooski, Vt. (now Acadia Pharmaceuticals of San Diego, Calif.), adapted for use with recombinant alpha2 adrenergic receptors in collaboration with Allergan. The assay measures receptor-mediated loss of contact inhibition that results in selective proliferation of receptor-containing cells in a mixed population of confluent cells. The increase in cell number is assessed with an appropriate transfected marker gene such as β-galactosidase, the activity of which can be easily measured in a 96-well format. Receptors that activate the G protein, Gq, elicit this response. Alpha2 receptors, which normally couple to Gi, activate the RSAT response when coexpressed with a hybrid Gq protein that has a Gi receptor recognition domain, called Gq/i5.
(§3) The assay is conducted as follows. NIH-3T3 cells are plated at a density of 2×10^6 cells in 15 cm dishes and maintained in Dulbecco's modified Eagle's medium supplemented with 10% calf serum. One day later, cells are cotransfected by calcium phosphate precipitation with mammalian expression plasmids encoding p-SV-β-galactosidase (5-10 μg), receptor (1-2 μg) and G protein (1-2 μg). 40 μg salmon sperm DNA may also be included in the transfection mixture to increase transfection efficiency. Fresh media is added on the following day and 1-2 days later, cells are harvested and frozen in 50 assay aliquots. Transfectant cells are thawed and 100 μl added to 100 μl aliquots of various concentrations of drugs in triplicate in 96-well dishes. Incubations continue 72-96 hr at 37°. After washing with phosphate-buffered saline, β-galactosidase enzyme activity is determined by adding 200 μl of the chromogenic substrate (consisting of 3.5 mM o-nitrophenyl-β-D-galactopyranoside and 0.5% of the non-ionic surfactant nonidet P-40 in phosphate buffered saline), incubating overnight at 30° and measuring optical density at 420 nm. The absorbency is a measure of enzyme activity, which depends on cell number and reflects a receptor-mediated cell proliferation. The EC50 and maximal effect of each drug at each alpha2 receptor is determined. The efficacy or intrinsic activity is calculated as a ratio of the maximal effect of the drug to the maximal effect of a standard full agonist for each receptor subtype. Brimonidine, also called UK14304, is used as the standard agonist for the alpha2A, alpha2B and alpha2C receptors. The RSAT assay is also discussed in Messier et al. (1995) High throughput assays of cloned adrenergic, muscarinic, neurokinin and neurotrophin receptors in living mammalian cells, Pharmacol. Toxicol. 76:308-11; see also Conklin et al. (1993) Substitution of three amino acids switches receptor specificity of Gqα to that of Giα, Nature 363:274-6; Both of these papers are incorporated by reference herein.

[3] = molecular target: T2, alpha 2B adrenergic receptor (Homo sapiens, UniProt P18089); experiment: RSAT (Receptor Selection and Amplification Technology) assay, alpha 2B; format: cell-based; details: for EC50: NIH-3T3 cells cotransfected with receptor and Gq/i5; for efficacy or intrinsic activity (value in parentheses) Alpha 2B: ratio of maximal effect to that of standard full agonist brimonidine
T2 construct: expressed in transfected cells; host or cells: NIH-3T3 cells, transient cotransfection by calcium phosphate
T2 sequence (P18089 1-450): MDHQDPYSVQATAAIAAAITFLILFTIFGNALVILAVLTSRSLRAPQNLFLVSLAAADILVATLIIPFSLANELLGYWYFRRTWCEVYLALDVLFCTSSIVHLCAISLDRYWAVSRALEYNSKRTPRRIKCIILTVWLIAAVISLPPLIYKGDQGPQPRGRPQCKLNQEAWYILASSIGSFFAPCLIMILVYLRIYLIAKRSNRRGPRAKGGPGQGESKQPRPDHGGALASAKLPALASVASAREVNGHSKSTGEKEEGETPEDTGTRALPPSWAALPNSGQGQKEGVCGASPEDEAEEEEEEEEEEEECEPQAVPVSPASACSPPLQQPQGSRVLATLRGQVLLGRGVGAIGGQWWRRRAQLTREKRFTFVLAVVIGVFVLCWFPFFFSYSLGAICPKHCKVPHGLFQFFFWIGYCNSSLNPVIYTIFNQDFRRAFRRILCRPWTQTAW
Procedure: as §2, §3

[4] = molecular target: T3, alpha 2C adrenergic receptor (Homo sapiens, UniProt P18825); experiment: RSAT (Receptor Selection and Amplification Technology) assay, alpha 2C; format: cell-based; details: for EC50: NIH-3T3 cells cotransfected with receptor and Gq/i5; for efficacy or intrinsic activity (value in parentheses) Alpha 2C: ratio of maximal effect to that of standard full agonist brimonidine
T3 construct: expressed in transfected cells; host or cells: NIH-3T3 cells, transient cotransfection by calcium phosphate
T3 sequence (P18825 1-462): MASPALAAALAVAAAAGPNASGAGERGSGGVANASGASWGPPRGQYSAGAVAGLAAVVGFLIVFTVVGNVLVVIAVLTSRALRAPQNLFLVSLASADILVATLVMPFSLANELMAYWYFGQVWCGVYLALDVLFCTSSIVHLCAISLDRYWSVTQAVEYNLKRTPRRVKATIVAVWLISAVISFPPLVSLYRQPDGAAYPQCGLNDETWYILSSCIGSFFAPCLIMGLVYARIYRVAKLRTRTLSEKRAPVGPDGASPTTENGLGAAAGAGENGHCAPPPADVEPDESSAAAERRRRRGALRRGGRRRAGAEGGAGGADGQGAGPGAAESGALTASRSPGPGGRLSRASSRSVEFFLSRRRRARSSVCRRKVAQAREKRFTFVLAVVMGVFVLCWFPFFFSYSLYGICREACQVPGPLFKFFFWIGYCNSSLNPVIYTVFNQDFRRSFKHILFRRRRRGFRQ
Procedure: as §2, §3

| SMILES | EC50 [2] | EC50 [3] | efficacy or intrinsic activity (value in parentheses) Alpha 2B [3] | EC50 [4] | efficacy or intrinsic activity (value in parentheses) Alpha 2C [4] | reduction in the exploratory activity of the rats (sedation) (Sprague-Dawley rats) | analgesic activity (tactile allodynia) [1] |
| --- | --- | --- | --- | --- | --- | --- | --- |
| OCCNC(=S)NCc1ccccc1F [FORMULA 4] |  |  |  |  |  | none of the compounds caused a statistically significant reduction | no analgesic activity |
| OCCNC(=S)NCc1c(F)ccc(F)c1Cl | ≥ 210000 nM | 44 nM | 0.94 | 1850 nM | 0.54 |  |  |
| OCCNC(=S)NCc1ccccc1C(F)(F)F | ≥ 210000 nM | 694 nM | 0.93 | 783 nM | 0.4 |  |  |

Now from value to molecule, other results behind:

| EC50 [2] | EC50 [3] | efficacy or intrinsic activity (value in parentheses) Alpha 2B [3] | EC50 [4] | efficacy or intrinsic activity (value in parentheses) Alpha 2C [4] | SMILES | reduction in the exploratory activity of the rats (sedation) (Sprague-Dawley rats) | analgesic activity (tactile allodynia) [1] |
| --- | --- | --- | --- | --- | --- | --- | --- |
| ≥ 210000 nM | 13 nM | 0.85 | 53 nM | 0.51 | OCCNC(=S)NCc1cc(F)ccc1F |  |  |
| ≥ 210000 nM | 120 nM | 0.92 | ≥ 210000 nM |  | Cc1cc(CNC(=S)NCCO)c(F)c(F)c1F |  |  |
| ≥ 210000 nM | 181 nM | 0.95 | > 2000 nM |  | Cc1ccc(Br)c(F)c1CNC(=S)NCCO |  |  |
| > 2000 nM | 22 nM | 0.73 | 819 nM | 0.56 | Cc1cc(Br)c(F)c(CNC(=S)NCCO)c1 |  |  |
